Results from patent publication US6515112B2, “Cores for technetium radiopharmaceuticals” (Amersham PLC, priority 1989, dated 2003).

Legend:
[1] = Animal biodistribution studies of 99mTc complexes in rats; format: in vivo, Male Sprague Dawley rats; design: Heart / Blood / Muscle / Lung / Liver / Kidney / Bladder & Urine / Brain: unit not given here; details: i.v. tail vein
Protocol: Complex Preparation: 20-25 μl of hydrazine was added to 2 cm^3 of absolute ethanol, then ^99mTcO4^−(0.2-3.0 GBq) and 10 mg of ligand were added to the solution. This mixture was heated to 120° C. for 30-60 minutes, cooled to room temperature and analyzed. For biodistribution studies the total volume of he preparation was made up to 5 cm^3 by the addition of sterile saline solution.
Animal Biodistribution Studies: Six Male Sprague Dawley rats were infected while under light ether anaesthesia with 0.1 cm^3 of preparation (i.v., tail vein) and half were sacrificed by cervical dislocation while under ether anaesthesia at the appropriate time interval post-infection and dissected. Organs were weighed and their activities measured in an ionisation chamber. For the purposes of calculations blood was assumed to constitute 5.8% of the total body weight, muscle was assumed to be 43% and the lungs were assumed to weigh 1 g.

[2] = Stability to air and moisture (observation); format: physicochemical; details: 99Tc complex, isolated solid
[3] = Solubility in solvents (observation); format: physicochemical; details: 99Tc complex, organic solvents

Compound	Bladder & Urine ([1]; Time P. I. 2)	Blood ([1]; Time P. I. 2)	Heart ([1]; Time P. I. 2)	Kidney ([1]; Time P. I. 2)	Liver ([1]; Time P. I. 2)	Lung ([1]; Time P. I. 2)	Muscle ([1]; Time P. I. 2)	Bladder & Urine ([1]; Time P. I. 60)	Blood ([1]; Time P. I. 60)	Heart ([1]; Time P. I. 60)	Kidney ([1]; Time P. I. 60)	Liver ([1]; Time P. I. 60)	Lung ([1]; Time P. I. 60)	Muscle ([1]; Time P. I. 60)	S. I. ([1]; Time P. I. 60)	stability to air / moisture [2]	solubility [3]	also measured
CP(C)COCP(C)C (99mTc complex, metal not drawn) [PL28]	0.11	4.18	1.12	9.41	17.8	1.18	30.2	10.9	0.46	0.65	5.90	5.95	0.62	27.4	39.6	–	–	Brain ([1]; Time P. I. 2): 0.04; Brain ([1]; Time P. I. 60): 0.02
CCOCC(COCC)(CP(C)C)CP(C)C (99mTc complex, metal not drawn) [PL42]	0.06	28.6	1.22	5.35	22.8	2.56	18.1	2.61	8.99	1.19	3.52	14.7	1.57	21.3	31.8	–	–	H/Bl ([1]; Time P. I. 2): 0.59; H/Li ([1]; Time P. I. 2): 0.73; S. I. ([1]; Time P. I. 2): 7.66; H/Bl ([1]; Time P. I. 60): 2.13; H/Li ([1]; Time P. I. 60): 1.12
COCCC(CCOC)(CP(C)C)CP(C)C (99mTc complex, metal not drawn) [PL50]	0.09	4.38	0.83	12.0	34.8	1.02	18.7	6.76	0.42	0.65	6.81	4.35	0.43	14.9	57.9	–	–	H/Bl ([1]; Time P. I. 2): 2.68; H/Li ([1]; Time P. I. 2): 0.31; S. I. ([1]; Time P. I. 2): 12.8; H/Bl ([1]; Time P. I. 60): 22.2; H/Li ([1]; Time P. I. 60): 1.27
CCCC[N+](CCCC)(CCCC)CCCC.Cc1ccc([N]=[Tc-]([Cl])([Cl])([Cl])[Cl])cc1 [Complex 1, Tetrabutylammonium(1+)tetrachloro(p-tolylimido) technetate (V) (1−)]	–	–	–	–	–	–	–	–	–	–	–	–	–	–	–	quite sensitive to adventitious moisture	–	–
CCCC[N+](CCCC)(CCCC)CCCC.Cc1ccc([N]=[Tc-]([Br])([Br])([Br])[Br])cc1 [Complex 2, Tetrabutylammonium(1+)tetrabromo(p-tolylimido) technetate (V) (1−)]	–	–	–	–	–	–	–	–	–	–	–	–	–	–	–	quite sensitive to adventitious moisture	–	–
Clc1ccc(N=[N][Tc]([Cl])([N]=Nc2ccc(Cl)cc2)([PH](c2ccccc2)(c2ccccc2)c2ccccc2)[PH](c2ccccc2)(c2ccccc2)c2ccccc2)cc1 [Complex 9, [TcCl(NNC6H4Cl)2(PPh3)2]]	–	–	–	–	–	–	–	–	–	–	–	–	–	–	–	air-stable	reasonably soluble	–
O=C1[O][Tc]([Cl])([Cl])([P+](c2ccccc2)(c2ccccc2)c2ccccc2)([P+](c2ccccc2)(c2ccccc2)c2ccccc2)=[N]c2ccccc21 [Complex 18, [TcCl2(NC6H4CO2)(PPh3)2]]	–	–	–	–	–	–	–	–	–	–	–	–	–	–	–	–	soluble in DMF and CH2Cl2	–
[N]#[Tc]([Cl])([Cl])([P](c1ccccc1)(c1ccccc1)c1ccccc1)[P](c1ccccc1)(c1ccccc1)c1ccccc1 [Example 7, TcNCl2(Ph3)2]	–	–	–	–	–	–	–	–	–	–	–	–	–	–	–	air-stable	quite soluble in CH2Cl2 and insoluble in ether, petrol and alcohols	–
CN([N]=[Tc]([Cl])([Cl])([Cl])([P](c1ccccc1)(c1ccccc1)c1ccccc1)[P](c1ccccc1)(c1ccccc1)c1ccccc1)c1ccccc1 [Example 10, TcNNPhMe(PPh3)2Cl3]	–	–	–	–	–	–	–	–	–	–	–	–	–	–	–	air-stable	reasonably soluble	–
COCCOCC(COCCOC)(CP(C)C)CP(C)C [PL43]	0.16	21.5	0.55	9.19	21.4	1.47	21.7	25.4	1.14	0.26	2.32	9.08	0.22	10.9	45.6	–	–	H/Bl ([1]; Time P. I. 2): 0.41; H/Li ([1]; Time P. I. 2): 0.38; S. I. ([1]; Time P. I. 2): 8.6; H/Bl ([1]; Time P. I. 60): 3.83; H/Li ([1]; Time P. I. 60): 0.40
[Cl][Tc]([N]=Nc1ccccc1)([N]=Nc1ccccc1)([PH](c1ccccc1)(c1ccccc1)c1ccccc1)[PH](c1ccccc1)(c1ccccc1)c1ccccc1 [[TcCl(NNPh)2(PPh3)2], [Tc(NNPh)2Cl(PPh3)2]]	–	–	–	–	–	–	–	–	–	–	–	–	–	–	–	–	somewhat insoluble	solubility ([3]; listed as Tc(NNPh)2Cl(PPh3)2): only partially soluble in halogenated solvents and insoluble in alcohols
[TC(NNC6H4Cl)2(N2S2)]x [Complex 17]	–	–	–	–	–	–	–	–	–	–	–	–	–	–	–	–	too insoluble for satisfactory analysis by NMR	–
[Tc(NC6H4Z)Cl(dppe)2] (BPh4) Z═CH3 [Complex 6]	–	–	–	–	–	–	–	–	–	–	–	–	–	–	–	air-stable	quite soluble in CH2Cl2 and insoluble in ether, petrol and alcohols	–
[TcN(dppe)2Cl][PF6] [Example 8]	–	–	–	–	–	–	–	–	–	–	–	–	–	–	–	air-stable	quite soluble in CH2Cl2 and insoluble in ether, petrol and alcohols	–
[Tc^III(NNC6H4NO2) (Cl(dmpe)2]^+	0.08	5.68	1.15	9.47	22.4	2.27	26.2	7.28	0.92	0.67	9.47	12.3	1.04	16.8	33.8	–	–	Brain ([1]; Time P. I. 2): 0.12; H/Bl ([1]; Time P. I. 2): 3.00; H/Li ([1]; Time P. I. 2): 0.72; S. I. ([1]; Time P. I. 2): 13.0; Brain ([1]; Time P. I. 60): 0.06; H/Bl ([1]; Time P. I. 60): 11.0; H/Li ([1]; Time P. I. 60): 0.76
